From patent US20100311757A1, “Salarins And Tulearins, Compositions And Uses Thereof” (RAMOT AT TEL-AVIV UNIVERSITY LTD., priority 2007, published 2010)

Tests used:
[1] = system: Ba/F3 cells expressing the EPO-R; experiment: MTT colorimetric cell proliferation assay, Ba/F3 cells expressing EPO-R; assay type: cell-based, murine
Method: (§1) The anti-cancer activities of the compounds of the invention have been determined in-vitro in human and mouse leukemia cell lines. The procedure was carried out using the colorimetric methyl thiazol tetrazoliumbromide (MTT) assay for measuring cell proliferation (Carmichael et al., (1987), Cancer Res. 47: 936-942).
(§2) The Human leukemia cell lines K562 (Lozzio and Lozzio (1975) Blood, 45, 321-334) and UT7 (Komatsu et al. (1991), Cancer Res. 51, 341-348) were grown in RPMI 1640 and IMDM medium respectively, supplemented with 10% fetal bovine serum (FBS), 2 mM L-glutamine, 100 ug/ml streptomycin and 100 u/ml penicillin. The murine Ba/F3 cell line stably transfected with the erythropoietin receptor (EPO-R) cDNA (D'Andrea et al., (1991), Mol. Cell. Biol. 11, 1980-1987) was cultured in RPMI medium supplemented with recombinant human EPO (rHuEPO, 0.5 U/ml). UT7 cells were cultured in the presence of 2 U/ml rHuEPO. Cells were maintained at 37° C. in a 5% CO2 humidified incubator.
(§3) Cells (4×10^3) were seeded in triplicate into 96-well, flat-bottom culture plates and grown in the presence of the compounds at different concentrations for 24, 48 and 72 hours. Untreated cells served as control. After incubation with the compound, cell growth was determined using the colorimetric methylthiazole tetrazolium bromide (MTT) assay (Mosmann (1983), J Immunol Methods 65, 55-63). Briefly, MTT was added to a final concentration of 5 μg/ml to each well and further incubated for 4 hours at 37° C. After complete solubilization of the dye by acid/alcohol (0.04 N HCl in 2-propanol), plates were read at 570 nm in an ELISA reader, reference 690 nm. Growth of cells exposed to treatment was calculated as the percent of optical density (OD) of the compound-treated cells to that of the non-treated cells.

UT7 = experiment: MTT colorimetric cell proliferation assay, UT7 cells; assay type: cell-based, human; details: for inhibition of cell growth, dose and time dependence: various concentrations, 24, 48 and 72 hours
Method: as §1, §2, §3

[2] = system: UT-7, K562 and Ba/F3 cell lines; experiment: MTT colorimetric cell proliferation assay, statements across the three cell lines; assay type: cell-based, human and mouse
Method: as §1, §2, §3

K562 = experiment: MTT colorimetric cell proliferation assay, K562 cells; assay type: cell-based, human
Method: as §1, §2, §3

[3] = system: Ba/F3, K562 and UT7 cell lines; experiment: Cell morphology by phase contrast microscopy; assay type: cell-based, human and mouse; details: 0.01 μM or 0.2 μM, over-night
Method: Cells were viewed in phase contrast microscopy. The size bar indicates a size of 15 um.
The potential effects of Salarin C on cell proliferation were also tested. Human leukemic cell lines UT-7 and K562, and the murine pro B cell line Ba/F3 which stably expresses the EPO receptor (EPO-R) were used as targets. […] Salarin C at concentrations of 0.0005-0.5 μg/ml was added to the cells for 24 hours, and cell viability was determined by the MTT assay (FIG. 24B). ˜50% inhibition of cell proliferation was obtained at 0.5 μg/ml (1 μM) of Salarin C for the UT-7 cell line and at 0.05 μg/ml (0.1 μM) for the K562 cell line. […] The effect of Salarin C on cell viability was also observed by microscopy (FIG. 25).

Row | SMILES | inhibition at 0.5 µg/mL ([1]; Mus musculus, BaF3, Ba/F3 cells expressing EPO-R, 0.5 ug/ml, 72 h of exposure) | inhibition at 1 µg/mL (UT7; Homo sapiens, UT7 cells, 1 μg/ml, 72 h of exposure) | inhibition of cell growth, dose and time dependence (UT7; UT7 cells) | relative potency ([2]; 0.5 μg/ml, 72 h, three tested cell lines) | anti-proliferative activity, dose dependence ([2]; 0.0005-0.5 μg/ml, 24 hours) | IC50 ([2]; 24 hours, across the tested cell lines, read-out: effective concentration range (IC50)) | proliferation ([1]; Ba/F3 cells, 0.1 μM, 24 hours) | cell viability ([1]; Ba/F3 cells, 0.5 μg/ml (1 μM), 72 h) | inhibition at 1 µM (UT7; Homo sapiens, UT7, UT-7 cells, 0.5 μg/ml (1 μM), 24 hours) | cell viability (UT7; UT-7 cells, 0.5 μg/ml (1 μM), 72 h) | cell viability (K562; 0.5 μg/ml (1 μM), 72 h) | inhibition at 0.1 µM (K562; Homo sapiens, 0.05 μg/ml (0.1 μM), 24 hours) | cell viability and morphology by microscopy [3] | inhibition at 0.5 µg/mL (UT7; Homo sapiens, UT7 cells, 0.5 ug/ml, 72 h of exposure) | inhibition at 0.5 µg/mL (K562; Homo sapiens, 0.5 ug/ml, 72 h of exposure) | inhibition of cell growth, dose and time dependence (K562; various concentrations, 24, 48 and 72 hours)
1 | CCCCCCCC(=O)OCC/C=C/C1OC1C1OC(=O)/C=C\C=C\C(=O)N(C(C)=O)C(=O)/C=C(/C)CCC2OC2C1OC(=O)NC(C)=O (centres unmarked) [Salarin A] | 48% | 45% | in a dose and time dependent manner |  |  |  |  |  |  |  |  |  |  |  |  | 
2 | CCCCCCCC(=O)OCC/C=C/C1OC1C1OC(=O)/C=C\C=C\c2nc(oc2C)/C=C(/C)CCC2OC2C1OC(=O)NC(C)=O (centres unmarked) [Salarin C] |  |  |  | more potent than Salarins A and B and Tulearin A | dose-dependent | 100 to 1000 nM | completely arrested | abolished nearly all viability | ~50% | abolished nearly all viability | abolished nearly all viability | ~50% | lower viability and characteristics of apoptotic cells |  |  | 
3 | CCCCC/C=C/C(C)=C/C1CC(C)C/C=C/CCC(O)C(OC(N)=O)CCC(C)CC(O)C(C)C(=O)O1 (centres unmarked) [Tulearin A] |  |  | in a dose and time dependent manner |  |  |  |  |  |  |  |  |  |  | 35% | 62% | in a dose and time dependent manner
